Results on 1 molecule are retold here after patent US20020009482A1, “Proenergetic food supplement based on NADH, octocosanol and vitamin E” (priority 2000, published 2002).

Molecules are shown by their SMILES.

A short description of the data set: Test for the stabilizing activity of Vitamin E on NADH (acid degradation in water at pH 4, 32° C.). The format is physicochemical. The note with it: within 20 minutes. As to the method:
TEST FOR THE STABILIZING ACTIVITY OF VITAMIN E ON NADH Two beakers are prepared containing 50 g of water at a pH 4 and a constant temperature of 32° C. 10 mg of NADH are dissolved in the first beaker and agitate. The effect of the acidity deactivates the NADH, which splits up into NAD+H. Within 20 minutes, 9.5 mg of NADH are split-up, while 0.5 mg remain unchanged. In a second beaker […] of NADH and 5 mg of Vitamin E are dissolved. The effect of the acidity deactivates the NADH, which splits up into NAD+H. Within 20 minutes, 7.5 mg of NADH are split-up, while 2.5 mg of NADH remain unchanged. The parameters of pH 4 and 32° C. for a duration of 20 minutes has been chosen as the food supplement is to be assumed in the morning on an empty stomach, 30 minutes before breakfast. This leads the tablets to easily pass the physiological stomach barrier in 20 minutes, so as reach the first portion of the intestine, where it can be absorbed and enter the blood circulating system.

The mark [1] stands for this setting: 20 mg NADH with 5 mg Vitamin E in 50 g water.

Turning to `NC(=O)C1=CN([C@@H]2O[C@H](COP(=O)(O)OP(=O)(O)OC[C@H]3O[C@@H](n4cnc5c(N)ncnc54)[C@H](O)[C@@H]3O)[C@@H](O)[C@H]2O)C=CC1` [NADH, nicotinamide adenine dinucleotide in a reduced form], the NADH remaining unchanged is listed as 0.5 mg (10 mg NADH alone in 50 g water) and 2.5 mg under setting [1]. For the same molecule, the “NADH split-up (into NAD+H)” value reads like this: (10 mg NADH alone in 50 g water) 9.5 mg; under setting [1], 7.5 mg.
